Results taken from article PMC9917560, “Design, Synthesis and Antimicrobial Evaluation of New N-(1-Hydroxy-1,3-dihydrobenzo[c][1,2]oxaborol-6-yl)(hetero)aryl-2-carboxamides as Potential Inhibitors of Mycobacterial Leucyl-tRNA Synthetase” (International Journal of Molecular Sciences, 2023).
In brackets after ≈: the same amount, converted by molar mass. Like-named read-outs stand apart in the source and are kept apart here. Marks after values point to notes of the source that are not given here.

Experiments:
HepG2 cell line = experiment: Cytotoxicity screening, CellTiter 96 assay; settings: Homo sapiens, HepG2, 24 h, read-out: IC50 HepG2
[1] = tested on: Lichtheimia corymbifera CCM 8077; experiment: Antifungal microdilution broth (EUCAST); type: cell-based; settings: Lichtheimia corymbifera, CCM8077, read-out: MIC Lichtheimia corymbifera
[2] = tested on: Escherichia coli CCM 3954 (ATCC 25922); experiment: Antibacterial microdilution broth (EUCAST); type: cell-based; settings: Escherichia coli, read-out: MIC Escherichia coli
[3] = tested on: Klebsiella pneumoniae CCM 4415 (ATCC 10031); experiment: Antibacterial microdilution broth (EUCAST); type: cell-based; settings: Klebsiella pneumoniae, read-out: MIC Klebsiella pneumoniae
[4] = tested on: Acinetobacter baumannii DSM 30007 (ATCC 19606); experiment: Antibacterial microdilution broth (EUCAST); type: cell-based; settings: read-out: MIC Acinetobacter baumannii
[5] = tested on: Mycobacterium tuberculosis H37Rv CNCTC My 331/88 (ATCC 27294); experiment: Microplate Alamar Blue assay vs Mtb H37Rv; type: cell-based; settings: Mycobacterium tuberculosis, pH 6.6, MABA, Middlebrook 7H9 pH 6.6, recalculated from µg/mL; read-out: MIC Mtb H37Rv
[6] = tested on: Enterococcus faecalis CCM 4224 (ATCC 29212); experiment: Antibacterial microdilution broth (EUCAST); type: cell-based; settings: read-out: MIC Enterococcus faecalis
[7] = tested on: Staphylococcus aureus subsp. aureus CCM 4223 (ATCC 29213); experiment: Antibacterial microdilution broth (EUCAST); type: cell-based; settings: read-out: MIC Staphylococcus aureus subsp. aureus
[8] = tested on: Staphylococcus epidermidis CCM 4418 (ATCC 12228); experiment: Antibacterial microdilution broth (EUCAST); type: cell-based; settings: read-out: MIC Staphylococcus epidermidis
[9] = tested on: Candida tropicalis CCM 8264 (ATCC 750); experiment: Antifungal microdilution broth (EUCAST); type: cell-based; settings: read-out: MIC Candida tropicalis
[10] = tested on: Mycobacterium kansasii DSM 44,162 (ATCC 12478); experiment: Antimycobacterial microdilution (resazurin) vs M. kansasii; type: cell-based; settings: Middlebrook 7H9, resazurin, read-out: MIC M. kansasii
[11] = tested on: methicillin-resistant Staphylococcus aureus subsp. aureus (MRSA) CCM 4750 (ATCC 43300); experiment: microbe, parasite or virus in culture; type: cell-based; settings: read-out: MIC Methicillin-resistant Staphylococcus aureus subsp. aureus
[12] = tested on: Mycobacterium tuberculosis H37Ra ITM-M006710 (ATCC 9431); experiment: Antimycobacterial microdilution (resazurin) vs Mtb H37Ra; type: cell-based; settings: Middlebrook 7H9, resazurin, recalculated from µg/mL, read-out: MIC Mtb H37Ra
[13] = tested on: Candida parapsilosis CCM 8260 (ATCC 22019); experiment: Antifungal microdilution broth (EUCAST); type: cell-based; settings: Lodderomyces parapsilosis, read-out: MIC Candida parapsilosis
[14] = tested on: Candida albicans CCM 8320 (ATCC 24433); experiment: Antifungal microdilution broth (EUCAST); type: cell-based; settings: Candida albicans, read-out: MIC Candida albicans
[15] = tested on: Mtb IZAK (MDR clinical isolate); experiment: microbe, parasite or virus in culture; type: cell-based; settings: Mycobacterium tuberculosis, read-out: MIC Mtb IZAK
[16] = tested on: Pseudomonas aeruginosa CCM 3955 (ATCC 27853); experiment: Antibacterial microdilution broth (EUCAST); type: cell-based; settings: read-out: MIC Pseudomonas aeruginosa
[17] = tested on: Mycolicibacterium smegmatis DSM 43,465 (ATCC 607); experiment: Antimycobacterial microdilution (resazurin) vs M. smegmatis; type: cell-based; settings: Middlebrook 7H9, resazurin, read-out: MIC M. smeg.
[18] = tested on: Candida krusei CCM 8271 (ATCC 6258); experiment: Antifungal microdilution broth (EUCAST); type: cell-based; settings: Pichia kudriavzevii, read-out: MIC Candida krusei
[19] = tested on: Mycobacterium avium DSM 44,156 (ATCC 25291); experiment: Antimycobacterial microdilution (resazurin) vs M. avium; type: cell-based; settings: Mycobacterium avium, Middlebrook 7H9, resazurin; read-out: MIC M. avium
[20] = tested on: Mtb MATI (MDR clinical isolate); experiment: microbe, parasite or virus in culture; type: cell-based; settings: Mycobacterium tuberculosis, read-out: MIC Mtb MATI
[21] = tested on: Mycolicibacterium aurum DSM 43,999 (ATCC 23366); experiment: Antimycobacterial microdilution (resazurin) vs M. aurum; type: cell-based; settings: Middlebrook 7H9, resazurin, read-out: MIC M. aurum
[22] = tested on: Aspergillus fumigatus ATCC 204305; experiment: Antifungal microdilution broth (EUCAST); type: cell-based; settings: Aspergillus fumigatus, ATCC204305, read-out: MIC Aspergillus fumigatus
[23] = tested on: Trichophyton interdigitale CCM 8377 (ATCC 9533); experiment: Antifungal microdilution broth (EUCAST); type: cell-based; settings: Trichophyton interdigitale, read-out: MIC Trichophyton interdigitale
[24] = tested on: Aspergillus flavus CCM 8363; experiment: Antifungal microdilution broth (EUCAST); type: cell-based; settings: Aspergillus flavus, CCM8363, read-out: MIC Aspergillus flavus
Mtb laboratory ID IZAK = type: cell-based, Mycobacterium tuberculosis; settings: strain IZAK; for Susceptibility: CLSI breakpoints 2020
Mtb laboratory ID MATI = type: cell-based, Mycobacterium tuberculosis; settings: strain MATI; for Concentration: CLSI 2021; for Susceptibility: CLSI breakpoints 2021
Mtb H37Rv = tested on: Mtb H37Rv; parameters: method as in PMID 27503647; settings: compounds synthesized and evaluated by Palencia et al. ref [13]; cited from earlier work

For `O=C(Nc1ccc2c(c1)B(O)OC2)c1cnc(Cl)cn1` [Compound 5, 5-chloro-N-(1-hydroxy-1,3-dihydrobenzo[c][1,2]oxaborol-6-yl)pyrazine-2-carboxamide], which IC50 (HepG2 cell line) is on record?
Its IC50 is 82.4 µM.

What about the MIC ([1]; 24h incubation) of the same molecule?
Its MIC is over 500 µM.

And the MIC ([1]; 48h incubation)?
Its MIC is over 500 µM.

What about the MIC ([2]; 24h incubation) of the same molecule?
The MIC was over 500 µM.

What about the MIC ([2]; 48h incubation) of the same molecule?
Its MIC is over 500 µM.

And the MIC ([3]; 24h incubation)?
The MIC was over 500 µM.

And the MIC ([3]; 48h incubation)?
Its MIC is over 500 µM.

What about the MIC ([4]; 24h incubation) of the same molecule?
The MIC was over 500 µM.

And the MIC ([4]; 48h incubation)?
The MIC was over 500 µM.

And the MIC [5]?
The MIC was 21.6 µM (≈ 6.25 µg/mL).

And the MIC ([6]; 24h incubation)?
Its MIC is over 500 µM.

And the MIC ([6]; 48h incubation)?
The MIC was over 500 µM.

And the MIC ([7]; 24h incubation)?
Its MIC is over 500 µM.

What about the MIC ([7]; 48h incubation) of the same molecule?
Its MIC is over 500 µM.

And the MIC ([8]; 24h incubation)?
The MIC was over 500 µM.

And the MIC ([8]; 48h incubation)?
Its MIC is over 500 µM.

And the MIC ([9]; 24h incubation)?
Its MIC is over 500 µM.

What about the MIC ([9]; 48h incubation) of the same molecule?
The MIC was over 500 µM.

And the MIC [10]?
Its MIC is 108 µM (≈ 31.3 µg/mL).

What about the MIC ([11]; 24 h) of the same molecule?
Its MIC is over 500 µM.

What about the MIC ([11]; 48 h) of the same molecule?
The MIC was over 500 µM.

What about the MIC [12] of the same molecule?
Its MIC is 27 µM (≈ 7.81 µg/mL).

What about the MIC ([13]; 24h incubation) of the same molecule?
Its MIC is over 500 µM.

And the MIC ([13]; 48h incubation)?
Its MIC is over 500 µM.

What about the MIC ([14]; 24h incubation) of the same molecule?
Its MIC is over 500 µM.

And the MIC ([14]; 48h incubation)?
Its MIC is over 500 µM.

And the melting point?
Its melting point is 233.8 to 235.3 °C.

And the MIC [15]?
Its MIC is 43.2 µM (≈ 12.5 µg/mL).

And the MIC ([16]; 24h incubation)?
Its MIC is over 500 µM.

What about the MIC ([16]; 48h incubation) of the same molecule?
Its MIC is over 500 µM.

What about the MIC [17] of the same molecule?
The MIC was 54 µM (≈ 15.6 µg/mL).

What about the MIC ([18]; 24h incubation) of the same molecule?
The MIC was over 500 µM.

And the MIC ([18]; 48h incubation)?
The MIC was over 500 µM.

What about the MIC [19] of the same molecule?
Its MIC is 54 µM (≈ 15.6 µg/mL).

And the MIC [20]?
The MIC was 43.2 µM (≈ 12.5 µg/mL).

And the MIC [21]?
Its MIC is 13.5 µM (≈ 3.91 µg/mL).

And the MIC ([22]; 24h incubation)?
Its MIC is over 500 µM.

What about the MIC ([22]; 48h incubation) of the same molecule?
Its MIC is over 500 µM.

What about the MIC ([23]; 72h incubation) of the same molecule?
Its MIC is over 500 µM.

What about the MIC ([23]; 120h incubation) of the same molecule?
Its MIC is over 500 µM.

What about the MIC ([24]; 24h incubation) of the same molecule?
Its MIC is over 500 µM.

And the MIC ([24]; 48h incubation)?
Its MIC is over 500 µM.

Which results are given for `NNC(=O)c1ccncc1` [INH, isoniazid, reference compound]?
MIC [5]: 2.84 µM (≈ 0.389 µg/mL); MIC [10]: 45.6 µM (≈ 6.25 µg/mL); MIC [12]: 3.65 µM (≈ 0.501 µg/mL); Susceptibility (Mtb laboratory ID IZAK): resistant; MIC [15]: 91.2 µM (≈ 12.5 µg/mL); MIC [17]: 228 µM (≈ 31.3 µg/mL); MIC [19]: 7290 µM (≈ 1000 µg/mL); MIC [20]: > 91.2 µM; MIC [21]: 28.5 µM (≈ 3.91 µg/mL); Concentration (Mtb laboratory ID MATI): >58.33 µM; Susceptibility (Mtb laboratory ID MATI): resistant

With `CC[C@@H](CO)NCCN[C@@H](CC)CO` [EMB, ethambutol] as the molecule, how does the MIC [5] read?
The MIC was 1.91 µM (≈ 0.39 µg/mL).

And the Concentration (Mtb laboratory ID IZAK; CLSI 2020)?
Its Concentration is 2.45 µM.

And the Susceptibility (Mtb laboratory ID IZAK)?
The Susceptibility was “sensitive”.

And the MIC [15]?
Its MIC is 7.64 µM (≈ 1.56 µg/mL).

What about the MIC [20] of the same molecule?
Its MIC is 7.64 µM (≈ 1.56 µg/mL).

What about the Concentration (Mtb laboratory ID MATI) of the same molecule?
Its Concentration is 2.45 µM.

What about the Susceptibility (Mtb laboratory ID MATI) of the same molecule?
Its Susceptibility is “sensitive”.

With `OB1OCc2ccccc21` [Compound C00021, (3H)-Benzo[c][1,2]oxaborol-1-ol] as the molecule, how does the “MIC Mtb H37Rv” value (Mtb H37Rv) read?
The value was 55.99 * µM.
